Literature values in patent US7862843B2 (priority 2004, dated 2011).

Assays:
prions [1] = system: prions
prions [2] = system: prions; remark: listed apart in the source

CC(C)=O [acetone]
Inactivating the infectivity of prions (prions [1]): ineffective

O=C1CCO1 [beta-propiolactone]
Inactivating the infectivity of prions (prions [1]): ineffective

CCO [ethanol]
Inactivating the infectivity of prions (prions [1]): ineffective

C1CO1 [ethylene oxide]
Inactivating the infectivity of prions (prions [1]): ineffective

C=O [formalin]
Inactivating the infectivity of prions (prions [1]): ineffective

[Na+].[O-]Cl [hypochlorite, sodium hypochlorite]
Infectivity lost (prions [2]; 1,000 ppm available chlorine, 4-16 hour exposure): 10^4-10^5 units of infectivity | Inactivation of prions on surfaces (prions [2]; full strength, 20,000-50,000 ppm): effective
